Data from patent US7105173B1, “Nicotine replacement applique” (priority 2002, dated 2006).

Legend:
[1] = cited from earlier work

Which “LD50 oral level expressed as total amount for a small infant” value does the source give for `CN1CCCC1c1cccnc1` (centres unmarked) [nicotine] here?
Its value is “about 250 mg”.

What about the LD50 oral level [1] of the same compound?
The LD50 oral level was “approximately 55 milligrams per Kilogram of body weight”.
